Measurements reported in patent publication US20210198313A1, “METHOD OF PRODUCING IMIDAZOLE DIPEPTIDES” (Tokai Bussan Co., Ltd., priority 2019, published 2021).

Tests used:
[1] = cited from earlier work
[2] = Titration of 0.1 M aqueous solutions with 0.1 N sulfuric acid and 0.1 N sodium hydroxide to determine dissociation constants and charge state; type: physicochemical
Text: In view of the difference between the adsorption behaviors of imidazole dipeptides, including anserine and carnosine, and creatinine on a strongly acidic cation exchange resin, each electrical dissociation behavior of the compounds with respect to pH values was experimentally measured by the titration method as mentioned below. The terms “pK” and “pI” are the dissociation constant and the isoelectric point, respectively.
The 0.1 M aqueous solutions of L-anserine, L-carnosine and creatinine were prepared and the titration curves were generated with 0.1 N sulfuric acid and 0.1 N sodium hydroxide according to known methods. From each titration curve, pK1, pKR and pK2 were determined.
In Table 1, with respect to anserine and carnosine, pK1 represents the dissociation of carboxyl group, pKR represents the dissociation of imidazole group, and pK2 represents the dissociation of amino group. With respect to creatinine, pKR represents the dissociation of imidazole group.
Based on the measured results, the state of the charge of anserine, carnosine and creatinine at each pH value is shown in FIG. 1.

[3] = Dissociation constants disclosed in published references; type: physicochemical; conditions: converted from literature pKb 9.20
Text: For example, Bate-Smith (Bate-Smith, E. C., J. Physiol. (London) 92, 336 (1938)) discloses the results that pK2 of carnosine was 6.83, and Doutsch et al. (Dutch, A., Eggleton, P., Biochem. J. 32, 209 (1938)), discloses the results that pK2 of anserin was 7.04. In these references, pK2 means the dissociation constant of imidazole group and corresponds to pKR in Table 1. […] If converted to pKR, it is 4.8. Thus, each pKR for anserine, carnosine and creatinine in Table 1 was well consistent with the data described in the references.

[4] = 0.1 M aqueous solution, titration curve

SMILES	pK2 (dissociation constant of imidazole group, corresponds to pKR in Table 1) ([1]; literature (Bate-Smith 1938; Deutsch and Eggleton 1938))	pI (isoelectric point) [2, 4]	pK1 (dissociation of carboxyl group) [2, 4]	pK2 (dissociation of amino group) [2, 4]	pKR (dissociation of imidazole group) [2, 4]	positive charge ([2]; pH 5, FIG. 1) [valent]	positive charge ([2]; pH 7, FIG. 1) [valent]	positive charge ([2]; pH 8, FIG. 1) [valent]	pKb ([1]; literature (Eadie and Hunter 1926))	pKR converted from pKb [3]
NCCC(=O)N[C@@H](Cc1c[nH]cn1)C(=O)O [Carnosine, β-alanyl histidine]	6.83	8.3	2.8	9.8	6.8	1	0.5	0.1		
CN1CC(=O)NC1=N [Creatinine, creatinine]									9.20	4.8
